From PMC10783514, “Synthesis of peptide–siRNA conjugates via internal sulfonylphosphoramidate modifications and evaluation of their in vitro activity” (Nucleic Acids Research, 2023)

Molecular target: T1, human GLP1R (Homo sapiens, UniProt P43220)
T1 construct: expressed in transfected cells
Test: GLP1R activity assay (CRE/luciferase reporter, cAMP potency)
Assay type: cell-based
Settings: BHK cells stably co-expressing human GLP1R and CRE luciferase reporter; 3 h at 37°C; 8 concentrations; four-parameter logistic fit (Hill slope = 1); mean of n = 3 independent experiments; read-out: EC50, activation of GLP1R
Experimental: GLP1R activity was measured through cyclic adenosine monophosphate (cAMP) potency using a clonal BHK cell line that stably co-express human GLP1R and the cAMP response element (CRE) luciferase reporter gene, essentially as previously reported ([33]). Briefly, frozen stocks of assay-ready cells were thawed to 37°C, washed once with PBS, and diluted to 100 000 cells/ml in assay buffer (DMEM without phenol red supplemented with 1× GlutaMAX, 10 mM HEPES, 1 w/v% ovalbumin, and 0.1 v/v% Pluronic F-68). Serial dilutions (10-fold dilutions in assay buffer, 8 concentrations for each compound) were made for GLP1–siRNA conjugates and free peptides in 96 well dilution plates using a Biomek i7 liquid handler. Then, 50 μl of each dilution were transferred to 96-well assay plates to which 50 μl of the diluted cell suspension was added (5000 cells/well). Plates were incubated for 3 h at 37°C in 5% CO2, then left at room temperature for 5 min before 100 μl SteadyLite Plus (PerkinElmer) was added to each well. Plates were sealed from light and incubated at room temperature for 30 min while gently shaking before luminescence was detected on a Biotek Synergy 2 plate reader.
This is performed by using a luciferase reporter under the control of CRE in recombinant BHK cells constitutively expressing human GLP1R. […]

T1 sequence (P43220 24-463): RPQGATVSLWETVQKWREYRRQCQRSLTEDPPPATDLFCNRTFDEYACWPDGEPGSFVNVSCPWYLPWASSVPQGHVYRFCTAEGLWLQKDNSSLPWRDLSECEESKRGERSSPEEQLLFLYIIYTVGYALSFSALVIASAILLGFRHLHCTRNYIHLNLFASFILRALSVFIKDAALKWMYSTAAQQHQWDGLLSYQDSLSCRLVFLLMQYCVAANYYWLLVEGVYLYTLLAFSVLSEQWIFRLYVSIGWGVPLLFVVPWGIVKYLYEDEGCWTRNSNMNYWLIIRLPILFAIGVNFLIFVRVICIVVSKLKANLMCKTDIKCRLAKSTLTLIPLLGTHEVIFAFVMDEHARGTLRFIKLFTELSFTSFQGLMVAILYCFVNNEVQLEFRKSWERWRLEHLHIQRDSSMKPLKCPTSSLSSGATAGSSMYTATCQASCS

EC50: 9 pM
SMILES: CC[C@H](C)[C@H](NC(=O)[C@H](Cc1ccccc1)NC(=O)[C@H](CCC(=O)O)NC(=O)[C@H](CCCNC(=N)N)NC(=O)[C@H](C)NC(=O)[C@H](C)NC(=O)[C@H](CCC(N)=O)NC(=O)CNC(=O)[C@H](CCC(=O)O)NC(=O)[C@H](CC(C)C)NC(=O)[C@H](Cc1ccc(O)cc1)NC(=O)[C@H](CO)NC(=O)[C@H](CO)NC(=O)[C@@H](NC(=O)[C@H](CC(=O)O)NC(=O)[C@H](CO)NC(=O)[C@@H](NC(=O)[C@H](Cc1ccccc1)NC(=O)[C@@H](NC(=O)CNC(=O)[C@H](CCC(=O)O)NC(=O)[C@H](C)NC(=O)[C@@H](N)Cc1c[nH]cn1)[C@@H](C)O)[C@@H](C)O)C(C)C)C(=O)N[C@@H](C)C(=O)N[C@@H](Cc1c[nH]c2ccccc12)C(=O)N[C@@H](CC(C)C)C(=O)N[C@H](C(=O)N[C@@H](CCCNC(=N)N)C(=O)NCC(=O)N[C@@H](CCCNC(=N)N)C(=O)NCC(=O)N[C@@H](CCCCN)C(=O)O)C(C)C [A]
